Assay results taken from US9862720B2, “Inhibitors of the renal outer medullary potassium channel” (Merck Sharp & Dohme Corp., priority 2014, dated 2018).

Tests used:
ROMK (Kir1.1) channel = target: T1, ROMK (Kir1.1) channel (Homo sapiens, UniProt P48048); experiment: Thallium Flux Assay; format: cell-based
T1 sequence (P48048 1-391): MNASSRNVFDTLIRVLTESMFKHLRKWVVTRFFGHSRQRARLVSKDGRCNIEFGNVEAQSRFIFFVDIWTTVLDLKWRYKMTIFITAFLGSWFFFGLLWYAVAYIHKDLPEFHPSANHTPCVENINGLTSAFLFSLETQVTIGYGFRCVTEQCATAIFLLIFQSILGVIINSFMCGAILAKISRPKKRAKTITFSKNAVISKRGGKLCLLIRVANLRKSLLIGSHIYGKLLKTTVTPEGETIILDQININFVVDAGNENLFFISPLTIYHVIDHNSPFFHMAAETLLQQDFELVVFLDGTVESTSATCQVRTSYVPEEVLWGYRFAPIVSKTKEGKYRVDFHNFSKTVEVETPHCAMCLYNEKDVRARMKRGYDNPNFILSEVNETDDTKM
Protocol: A Thallium Flux Assay was performed on the compounds of the Examples. This assay has been described previously; see, e.g., PCT Published Application WO 2013/062900.

Kir1.1 (ROMK1) = target: T2, Kir1.1 (ROMK1) (Homo sapiens, UniProt P48048); experiment: Electrophysiology Assay (whole cell voltage clamp, IonWorks Quattro); format: cell-based; conditions: Chinese hamster ovary cells stably expressing Kir1.1; fractional block at voltage step to 0 mV; 6 min compound incubation
T2 construct: expressed in transfected cells
T2 sequence (P48048 1-391): T1 sequence (P48048 1-391)
Protocol: Blocking of Kir1.1 (ROMK1) currents was examined by whole cell voltage clamp (Hamill et. al. Pfluegers Archives 391:85-100 (1981) using the IonWorks Quattro automated electrophysiology platform (Molecular Devices, Sunnyvale, Calif.). Chinese hamster ovary cells stably expressing Kir1.1 channels were maintained in T-75 flasks in cell culture media in a humidified 10% CO2 incubator at 37° C. Prior to an experiment, Kir1.1 expression was induced by overnight incubation with 1 mM sodium butyrate. On the day of the experiment, cells were dissociated with 2.5 mL of Versene (Invitrogen 15040-066), a non-enzymatic cell dissociation reagent, for approximately 6 min at 37° C. and suspended in 10 mL of bath solution containing (in mM): 150 NaCl, 10 KCl, 2.7 CaCl2, 0.5 MgCl2, and 5 HEPES, at pH 7.4. After centrifugation, the cell pellet was resuspended in approximately 4.0 mL of bath solution and placed in the IonWorks instrument. The intracellular solution consisted of (in mM): 80 K gluconate, 40 KCl, 20 KF, 3.2 MgCl2, 3 EGTA, and 5 Hepes, at pH 7.4. Electrical access to the cytoplasm was achieved by perforation in 0.13 mg/mL amphotericin B for 4 min. Amphotericin B (Sigma A-4888) was prepared as a 40 mg/mL solution in DMSO.
Voltage protocols and current recordings were performed using the IonWorks HT software/hardware system. Currents were sampled at 1 kHz. There was no correction for liquid junction potentials. The test pulse, consisting of a 100 ms (millisecond) step to 0 mV (millivolts) from a holding potential of −70 mV, followed by a 100 ms voltage ramp from −70 mV to +70 mV, was applied before and after a 6 min compound incubation period. Test compounds were prepared by diluting DMSO stock solutions into the bath solution at 3× the final concentration and placed in the instrument in 96-well polypropylene plates. Current amplitudes were measured using the IonWorks software. To assess compound potency, the fractional block during the voltage step to 0 mV was calculated in Microsoft Excel (Microsoft, Redmond, Calif.), and dose-response curves were fitted with Igor Pro 4.0 (WaveMetrics, Lake Oswego, Oreg.). Although not required, a control compound is typically included to support that the assay is giving consistent results compared to previous measurements.

Compound | IC50 (ROMK (Kir1.1) channel) [nM] | IC50 (Kir1.1 (ROMK1)) [nM]
CC1=C(N2N=CC3(CCN(CC(O)c4ccc(-n5cnnn5)nn4)CC3)C2=O)COC1=O (single isomer, unassigned) [Example 4A, 8-(2-(6-(1H-tetrazol-1-yl)pyridazin-3-yl)-2-hydroxyethyl)-2-(4-methyl-5-oxo-2,5-dihydrofuran-3-yl)-2,3,8-triazaspiro[4.5]dec-3-en-1-one] | 267 | –
CC1=C(N2NCC3(CCN(C[C@H](O)c4ccc5c(c4C)COC5=O)CC3)C2=O)COC1=O [Example 1, (R)-8-(2-hydroxy-2-(4-methyl-1-oxo-1,3-dihydroisobenzofuran-5-yl)ethyl)-2-(4-methyl-5-oxo-2,5-dihydrofuran-3-yl)-2,3,8-triazaspiro[4.5]decan-1-one] | 68.4 | 33
CC1=C(N2NCC3(CCN(C[C@H](O)c4ccc(-n5cnnn5)nc4)CC3)C2=O)COC1=O [Example 2A, (R)-8-(2-(6-(1H-tetrazol-1-yl)pyridin-3-yl)-2-hydroxyethyl)-2-(4-methyl-5-oxo-2,5-dihydrofuran-3-yl)-2,3,8-triazaspiro[4.5]decan-1-one] | 36.5 | 53
CC1=C(N2NCC3(CCN(C[C@@H](O)c4ccc(-n5cnnn5)nc4)CC3)C2=O)COC1=O [Example 2B, (S)-8-(2-(6-(1H-tetrazol-1-yl)pyridin-3-yl)-2-hydroxyethyl)-2-(4-methyl-5-oxo-2,5-dihydrofuran-3-yl)-2,3,8-triazaspiro[4.5]decan-1-one] | 57.8 | 33
CC1=C(N2N=CC3(CCN(CCc4ccc(-n5cnnn5)nn4)CC3)C2=O)COC1=O [Example 5, 8-(2-(6-(1H-tetrazol-1-yl)pyridazin-3-yl)ethyl)-2-(4-methyl-5-oxo-2,5-dihydrofuran-3-yl)-2,3,8-triazaspiro[4.5]dec-3-en-1-one] | 45.8 | –

Further lines, results first:

IC50 (ROMK (Kir1.1) channel) [nM] | IC50 (Kir1.1 (ROMK1)) [nM] | Compound
54.9 | 17 | CC1=C(N2N=CC3(CCN(C[C@H](O)c4ccc(-n5cnnn5)nc4)CC3)C2=O)COC1=O [Example 3A, (R)-8-(2-(6-(1H-tetrazol-1-yl)pyridin-3-yl)-2-hydroxyethyl)-2-(4-methyl-5-oxo-2,5-dihydrofuran-3-yl)-2,3,8-triazaspiro[4.5]dec-3-en-1-one]
57.1 | – | CC1=C(N2N=CC3(CCN(C[C@@H](O)c4ccc(-n5cnnn5)nc4)CC3)C2=O)COC1=O [Example 3B, (S)-8-(2-(6-(1H-tetrazol-1-yl)pyridin-3-yl)-2-hydroxyethyl)-2-(4-methyl-5-oxo-2,5-dihydrofuran-3-yl)-2,3,8-triazaspiro[4.5]dec-3-en-1-one]
